The supplement of paper PMC11451515

Key:
SEM cells [1] = test: AUC of viability dose-response curve (% viability x log10 dose units); higher = less sensitive; settings: 48 h
Summary of the method: (§1)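 In 1536-well plates, leukemia cells adapted to each medium (500 or 1000 cells/well) were exposed for 48 h at 37°C to library compounds in DMSO across 11 threefold doses, 47 μM down to 0.79 nM. Viability was read by CellTiter-Glo One luminescence and normalised per plate to DMSO and cell-free wells. A four-parameter log-logistic fit over log10 doses was integrated by trapezoidal rule. This yielded the area under the curve, with over-full-viability curves scaled and quality-control failures dropped.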

P12-Ichikawa [2] = test: as above; settings: 48 h
Summary of the method: as §1

NOMO1 = test: as above; settings: 48 h
Summary of the method: as §1

SEM cells [3] = test: cell viability relative to DMSO control; higher = less cytotoxic; settings: 48 h
Summary of the method: (§2)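 NOMO1, SEM and P12-Ichikawa leukemia cells spent at least four passages adapting to each medium before use. They were seeded at 500 cells/well (NOMO1, SEM) or 1000 cells/well (P12-Ichikawa) in 5 μl in 1536-well plates and pin-dosed with library compounds in DMSO at 11 threefold steps from 47 μM down to 0.79 nM. After 48 h at 37°C, CellTiter-Glo One luminescence was read. Viability is reported as a percentage of the DMSO wells on each plate, with cell-free wells as background.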

P12-Ichikawa [4] = test: as above; settings: HPLM + 10% dialyzed FBS, 48 h
Summary of the method: as §2

Cc1c(O)cccc1C(=O)N[C@@H](CSc1ccccc1)[C@H](O)CN1C[C@H]2CCCC[C@H]2C[C@H]1C(=O)NC(C)(C)C
AUC of viability dose-response curve
Settings	NOMO1	P12-Ichikawa [2]	SEM cells [1]
HPLM + 10% dialyzed FBS	465	447	426
RPMI 5 mM glucose + 10% FBS	459	459	453
RPMI 5 mM glucose + 10% dialyzed FBS	455	461	455

CC(C)C[C@H](NC(=O)CNC(=O)c1cc(Cl)ccc1Cl)B1OC(=O)CC(CC(=O)O)(C(=O)O)O1 (stereo partly specified)
cell viability [%], SEM cells [3]
Settings	HPLM + 10% dialyzed FBS	RPMI 5 mM glucose + 10% FBS
0.000781 µM	101	120
0.00234 µM	120	132
0.00702 µM	125	124
0.0211 µM	145	125
0.0632 µM	128	99.9
0.19 µM	16	13.3
0.569 µM	8.29	8.91
1.71 µM	7.41	8.18
5.12 µM	5.78	6.61
15.4 µM	4.49	4.78
46.1 µM	4.53	4.54

AUC of viability dose-response curve
Settings	NOMO1	P12-Ichikawa [2]	SEM cells [1]
HPLM + 10% dialyzed FBS	276	270	231
RPMI 5 mM glucose + 10% FBS	278	269	221
RPMI 5 mM glucose + 10% dialyzed FBS	280	269	235

COc1cc(C(C)=O)ccc1OCCCN1CCC(c2noc3cc(F)ccc23)CC1
cell viability [%], SEM cells [3]
Settings	HPLM + 10% dialyzed FBS	RPMI 5 mM glucose + 10% dialyzed FBS
0.000781 µM	110	113
0.00234 µM	112	121
0.00702 µM	118	137
0.0211 µM	95	135
0.0632 µM	99.3	115
0.19 µM	124	142
0.569 µM	123	160
1.71 µM	123	135
5.12 µM	122	158
15.4 µM	128	138
46.1 µM	88.7	106

Settings	AUC of viability dose-response curve	cell viability [%]
NOMO1, HPLM + 10% dialyzed FBS	468	–
NOMO1, RPMI 5 mM glucose + 10% FBS	468	–
NOMO1, RPMI 5 mM glucose + 10% dialyzed FBS	464	–
P12-Ichikawa [2], HPLM + 10% dialyzed FBS	470	–
P12-Ichikawa [2], RPMI 5 mM glucose + 10% FBS	472	–
P12-Ichikawa [2], RPMI 5 mM glucose + 10% dialyzed FBS	471	–
P12-Ichikawa [4], 0.000781 µM	–	118
P12-Ichikawa [4], 0.00234 µM	–	115
P12-Ichikawa [4], 0.00702 µM	–	119
P12-Ichikawa [4], 0.0211 µM	–	127
P12-Ichikawa [4], 0.0632 µM	–	124
P12-Ichikawa [4], 0.19 µM	–	127
P12-Ichikawa [4], 0.569 µM	–	129
P12-Ichikawa [4], 1.71 µM	–	124
P12-Ichikawa [4], 5.12 µM	–	129
P12-Ichikawa [4], 15.4 µM	–	125
P12-Ichikawa [4], 46.1 µM	–	120
SEM cells [1], HPLM + 10% dialyzed FBS	468	–
SEM cells [1], RPMI 5 mM glucose + 10% FBS	446	–
SEM cells [1], RPMI 5 mM glucose + 10% dialyzed FBS	455	–

COc1cc(C(=O)N2CCC(N3CCN(C)CC3)CC2)ccc1Nc1ncc2c(n1)N(C)c1ccccc1C(=O)N2C
AUC of viability dose-response curve
Settings	NOMO1	P12-Ichikawa [2]	SEM cells [1]
HPLM + 10% dialyzed FBS	419	428	376
RPMI 5 mM glucose + 10% FBS	435	435	374
RPMI 5 mM glucose + 10% dialyzed FBS	412	433	363
